Data as given in patent US20230135894A1, “MK2 DEGRADERS AND USES THEREOF” (Kymera Therapeutics, Inc., priority 2021, published 2023).

Key:
[1] = target: T1, MK2 (Homo sapiens, UniProt P49137); experiment: MK2 degradation in human SW1353 cells (MSD, 24 h); assay type: cell-based; design: endogenous in cells; host or cells: SW-1353 (ATCC HTB-94); key to MK2 MSD SW1353 degradation 24 h GMean External Abs DC50: A (<0.001 μM); B (0.001-0.01 μM); C (0.01-0.1 μM); D (>0.1 μM); —: “-”=not tested or inactive; key to MK2 MSD SW 1353 24 h Dmax %: —: “-”=not tested or inactive; conditions: for Dmax: read-out: MK2 MSD SW 1353 24 h Dmax %; for DC50: read-out: MK2 MSD SW1353 degradation 24 h GMean External Abs DC50
T1 sequence (P49137 whole entry): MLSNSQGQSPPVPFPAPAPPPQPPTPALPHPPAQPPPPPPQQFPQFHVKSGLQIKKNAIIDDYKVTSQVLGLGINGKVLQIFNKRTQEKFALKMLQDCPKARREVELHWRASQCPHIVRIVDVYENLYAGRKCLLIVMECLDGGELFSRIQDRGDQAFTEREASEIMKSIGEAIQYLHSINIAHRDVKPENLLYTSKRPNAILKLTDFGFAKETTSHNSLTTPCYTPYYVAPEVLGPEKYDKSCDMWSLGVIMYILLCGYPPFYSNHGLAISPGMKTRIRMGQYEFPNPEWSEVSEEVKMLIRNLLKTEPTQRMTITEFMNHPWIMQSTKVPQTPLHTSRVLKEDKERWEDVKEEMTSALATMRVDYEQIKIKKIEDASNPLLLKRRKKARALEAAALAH
How it was run: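 DC50 derived by 4-parameter logistic fit, with DMSO-treated signal as top and lysis-buffer signal as bottom. Remaining MK2 was measured by MSD electrochemiluminescent sandwich assay in RIPA lysates of human SW1353 cells exposed for 24 h at 37 °C to serially diluted compound in 0.1% DMSO.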

[2] = target: T1, MK2; experiment: MK2 degradation in human THP-1 monocytic cells (MSD, 24 h); assay type: cell-based; design: endogenous in cells; key to MK2 MSD THP-1 degradation 24 h GMean External Abs DC50: A (<0.001 μM); B (0.001-0.01 μM); C (0.01-0.1 μM); D (>0.1 μM); —: “-”=not tested or inactive; conditions: for Dmax: THP-1, THP-1 cells; for DC50: read-out: MK2 MSD THP-1 degradation 24 h GMean External Abs DC50
How it was run: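 Readout: residual MK2 protein in THP-1 lysates, measured by MSD electrochemiluminescence sandwich assay after 24 h compound exposure (≤10-point serial dilutions, 0.1% DMSO, 37 °C). Curves normalised between lysis-buffer and DMSO-cell signals; DC50 by 4-parameter logistic fit.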

Dmax [1]	DC50 [1]	Dmax [2]	DC50 ([2]; THP-1 cells)	MK2 MSD SW1353 degradation 24 h GMean External Abs DC50 [1]	MK2 MSD THP-1 degradation 24 h GMean External Abs DC50 ([2]; THP-1 cells)	SMILES	MK2 MSD SW 1353 24 h Dmax % [1]
> 75%	< 1 nM	> 75%	< 1 nM			Cn1c(=O)n(C2CCC(=O)NC2=O)c2ccc(N3CCC(CN4CCN(c5ccc(-c6cc(-c7cc8c([nH]7)C7(CC7)CNC8=O)ccn6)c(F)c5)CC4)CC3)cc21 (centres unmarked) [Compound I-218]	
< 50%	> 100 nM	< 50%	> 100 nM			Cn1c(=O)n(C2CCC(=O)NC2=O)c2cccc(CCCCCCN3CC4(CCN(c5ccc6c(c5)Cn5cc(-c7ccc(F)cc7)cc5-c5nccn5-6)C4)C3)c21 (centres unmarked) [Compound I-257]	
> 75%			10 to 100 nM			C[C@@H]1CNc2c(sc3ccc4nc(-c5ccc(C#CCCNC(=O)CCCCCCCCCc6cccc7c6n(C)c(=O)n7C6CCC(=O)NC6=O)cc5)ccc4c23)C(=O)N1 (some centres unmarked) [Compound I-54]	
> 75%		> 75%		—	—	Cn1c(=O)n(C2CCC(=O)NC2=O)c2cccc(CCN3CCN(c4ccc(-c5cc(-c6cc7c([nH]6)C6(CC6)CNC7=O)ccn5)c(F)c4)CC3)c21 (centres unmarked) [Compound I-179]	
> 75%	1 to 10 nM	50 to 75%	1 to 10 nM			C[C@@H]1CNc2c(sc3ccc4nc(-c5cccc(N6CCN(CCCCCCCCc7ccc8c(c7)n(C)c(=O)n8C7CCC(=O)NC7=O)CC6)c5)ccc4c23)C(=O)N1 (some centres unmarked) [Compound I-176]	
> 75%	< 1 nM	> 75%	< 1 nM			C[C@@H]1CNc2c(sc3ccc4nc(-c5ccc(N6CCN(CC7CN(c8cccc9c8n(C)c(=O)n9C8CCC(=O)NC8=O)C7)CC6)nc5)ccc4c23)C(=O)N1 (some centres unmarked) [Compound I-245]	
> 75%	< 1 nM	> 75%	< 1 nM			CC(C)Oc1cc(-c2ccc3c(ccc4sc5c(c43)NC[C@@H](C)NC5=O)n2)cc(N2CCN(CC3CCN(c4ccc5c(c4)n(C)c(=O)n5C4CCC(=O)NC4=O)CC3)CC2)c1 (some centres unmarked) [Compound I-230]	
> 75%	< 1 nM	> 75%	< 1 nM			C[C@@H]1CNc2c(sc3ccc4nc(-c5ccc(N6CCN(C(=O)COCCOCCOCCOCCc7ccc8c(c7)n(C)c(=O)n8C7CCC(=O)NC7=O)CC6)cc5)ccc4c23)C(=O)N1 (some centres unmarked) [Compound I-43]	
< 50%	> 100 nM	< 50%	> 100 nM			C[C@@H]1CNc2c(sc3ccc4nc(-c5cccc(N6CCN(C(=O)COCCOCCc7cccc8c7n(C)c(=O)n8C7CCC(=O)N(C)C7=O)CC6)c5)ccc4c23)C(=O)N1 (some centres unmarked) [Compound I-318]	
< 50%	> 100 nM	< 50%	> 100 nM			Cc1cc(N2CCN(CC3CCN(c4ccc5c(c4)n(C)c(=O)n5C4CCC(=O)NC4=O)CC3)CC2)ccc1-c1cc(-c2cc3c([nH]2)CCNC3=O)ccn1 (centres unmarked) [Compound I-229]	
> 75%	1 to 10 nM	> 75%	1 to 10 nM			C[C@@H]1CNc2c(sc3ccc4nc(N5CCN(CC6CCN(c7ccc8c(c7)n(C)c(=O)n8C7CCC(=O)NC7=O)CC6)CC5)ccc4c23)C(=O)N1 (some centres unmarked) [Compound I-265]	
> 75%	< 1 nM	> 75%	< 1 nM			Cc1nc(N2CCN(CC3CN(c4ccc5c(c4)n(C)c(=O)n5C4CCC(=O)NC4=O)C3)CC2)ccc1-c1ccc2c(ccc3sc4c(c32)NC[C@@H](C)NC4=O)n1 (some centres unmarked) [Compound I-234]	
> 75%	< 1 nM	> 75%	< 1 nM			Cn1c(=O)n(C2CCC(=O)NC2=O)c2ccc(N3CCC(CN4CCN(c5ccc(-c6cc(-c7cc8c([nH]7)CCNC8=O)ccn6)cc5)CC4)CC3)cc21 (centres unmarked) [Compound I-143]	
> 75%	< 1 nM	> 75%	< 1 nM			C[C@@H]1CNc2c(sc3ccc4nc(-c5ccc(N6CC7(CCN(c8ccc9c(c8)n(C)c(=O)n9C8CCC(=O)NC8=O)CC7)C6)nc5)ccc4c23)C(=O)N1 (stereo partly drawn) [Compound I-409, 3-(3-methyl-5-(2-(5-((R)-10-methyl-8-oxo-9,10,11,12-tetrahydro-8H-[1,4]diazepino[5′,6′:4,5]thieno[3,2-f]quinolin-3-yl)pyridin-2-yl)-2,7-diazaspiro[3.5]nonan-7-yl)-2-oxo-2,3-dihydro-1H-benzo[d]imidazol-1-yl)piperidine-2,6-dione]	
> 75%	10 to 100 nM	> 75%	< 1 nM			C[C@@H]1CNc2c(sc3ccc4nc(-c5cccc(N6CCC7(CC6)CN(CCCCCCc6cccc8c6n(C)c(=O)n8C6CCC(=O)NC6=O)C7)c5)ccc4c23)C(=O)N1 (some centres unmarked) [Compound I-293]	
< 50%	> 100 nM	< 50%	> 100 nM			COc1cc(N2CCN(CC3CCN(c4ccc5c(c4)n(C)c(=O)n5C4CCC(=O)NC4=O)CC3)CC2)cc(-n2cc(-c3ccc4c(c3)CCNC4=O)c(N)n2)c1 (centres unmarked) [Compound I-459]	
> 75%	< 1 nM	50 to 75%	10 to 100 nM			COc1cc(-c2ccc3c(ccc4sc5c(c43)NC[C@@H](C)NC5=O)n2)c(C)cc1N1CCN(CC2CCN(c3ccc4c(c3)n(C)c(=O)n4C3CCC(=O)NC3=O)CC2)CC1 (some centres unmarked) [Compound I-432]	
> 75%	< 1 nM	> 75%	< 1 nM			C[C@@H]1CNc2c(sc3ccc4nc(-c5cnc(N6CCC(CN7CCN(c8ccc9c(c8)n(C)c(=O)n9C8CCC(=O)NC8=O)CC7)CC6)nc5)ccc4c23)C(=O)N1 (some centres unmarked) [Compound I-271]	
> 75%	< 1 nM	> 75%	1 to 10 nM			Cn1c(=O)n(C2CCC(=O)NC2=O)c2ccc(N3CCC(CN4CCN(c5ccc(-c6nccc(-c7cc8c([nH]7)C7(CC7)CNC8=O)n6)cc5)CC4)CC3)cc21 (centres unmarked) [Compound I-428]	
< 50%	> 100 nM	< 50%	> 100 nM			Cn1c(=O)n(C2CCC(=O)NC2=O)c2ccc(N3CCC(CN4CCN(c5cc(C#N)cc(-n6cc(-c7ccc8c(c7)CCNC8=O)c(N)n6)c5)CC4)CC3)cc21 (centres unmarked) [Compound I-458]	
< 50%	> 100 nM	< 50%	> 100 nM			Cn1c(=O)n(C2CCC(=O)NC2=O)c2cccc(CCCN3CCN(c4ccc(F)c(-c5cc(-c6cc7c([nH]6)CCNC7=O)ccn5)c4)CC3)c21 (centres unmarked) [Compound I-133]	
< 50%	> 100 nM	< 50%	> 100 nM			Cn1c(=O)n(C2CCC(=O)NC2=O)c2ccc(CCCN3CCN(c4cccc(-c5ccc(-c6cc7c([nH]6)CCNC7=O)cn5)c4)CC3)cc21 (centres unmarked) [Compound I-121]	
> 75%	1 to 10 nM	50 to 75%	1 to 10 nM			C[C@@H]1CNc2c(sc3ccc4nc(N5CCCN(CCC6CCN(c7ccc8c(c7)n(C)c(=O)n8C7CCC(=O)NC7=O)CC6)CC5)ccc4c23)C(=O)N1 (some centres unmarked) [Compound I-444]	

SMILES	Dmax [1]	DC50 [1]	Dmax [2]	DC50 ([2]; THP-1 cells)	MK2 MSD SW1353 degradation 24 h GMean External Abs DC50 [1]	MK2 MSD THP-1 degradation 24 h GMean External Abs DC50 ([2]; THP-1 cells)	MK2 MSD SW 1353 24 h Dmax % [1]
C[C@@H]1CNc2c(sc3ccc4nc(N5C6CCC5CN(CC5CCN(c7cccc8c7n(C)c(=O)n8C7CCC(=O)NC7=O)CC5)C6)ccc4c23)C(=O)N1 (some centres unmarked) [Compound I-435]		> 100 nM	< 50%	> 100 nM			—
Cn1c(=O)n(C2CCC(=O)NC2=O)c2cccc(N3CCC(CN4CCC5(CC4)CNC(=O)c4c5[nH]c5c4CCc4cnc(-c6ccccc6F)cc4-5)CC3)c21 (centres unmarked) [Compound I-316]	< 50%	> 100 nM	< 50%	> 100 nM			
